From patent US20240180900A1, “COMPOUNDS AND METHODS FOR THE TARGETED DEGRADATION OF ANDROGEN RECEPTOR” (Arvinas Operations, Inc., priority 2022, published 2024)
“Also recorded” adds a separate entry of the source.

Assay: Phase 1/2 study in mCRPC participants: safety
[1] = all causality SAEs, Phases 1 and 2 combined, N = 47
[2] = all-causality TEAEs, Phase 1, N = 34

COc1cc(O[C@H]2C(C)(C)[C@H](NC(=O)c3ccc(N4CCC(CN5CCN(c6ccc(C(=O)N[C@H]7CCC(=O)NC7=O)c(F)c6)CC5)CC4)cc3)C2(C)C)ccc1C#N [Compound A, 4-(4-((1-(4-(((1R,3R)-3-(4-cyano-3-methoxyphenoxy)-2,2,4,4-tetramethylcyclobutyl)carbamoyl)phenyl)piperidin-4-yl)methyl)piperazin-1-yl)-N—((S)-2,6-dioxopiperidin-3-yl)-2-fluorobenzamide]
DLTs (Part A (Phase 1 dose escalation), 20 mg to 500 mg QD): No DLTs have been reported
Grade 4 or 5 TRAEs (Phase 1): no Grade 4 or 5 TRAEs
TRAE of Grade 3 aspartate aminotransferase increased (Phase 1): 1
TRAE of Grade 3 fatigue (Phase 1): 1
participants who discontinued study treatment due to a TEAE (Phase 1): No participant
treatment discontinuation due to TRAE (Phase 1): no treatment discontinuation
participants with treatment-emergent SAEs regardless of attribution (Phase 1, of 34): 11 participants
tolerability (Phase 1/2, post-NHA mCRPC patients, 40 mg to 500 mg once daily): well-tolerated; also recorded: well tolerated
treatment-related SAEs (Phase 1 and Phase 2): No treatment-related SAEs were reported
grade of the majority of TRAEs (Phase 1 dose escalation and Phase 2 interim data): Grade 1/2
SAEs (Phase 2): no SAEs were reported
TRAE abdominal pain (Phase 2): 2 (15.4%) participants
TRAE alopecia (Phase 2): 2 (15.4%) participants
TRAE dysgeusia (Phase 2): 2 (15.4%) participants
TRAE nausea (Phase 2): 2 (15.4%) participants
TRAE of Grade 3 abdominal pain (Phase 2): 1
dose reductions due to a TRAE (Phase 2): two
treatment discontinuation due to a TRAE (Phase 2): one
participants who discontinued treatment due to a TEAE (Phase 2, Grade 3 abdominal pain, related): One
participants with TEAEs regardless of attribution (Phases 1 and 2, of 47): 44 participants
participants with TEAEs at least potentially related to Compound A (Phases 1 and 2 combined, of 47): 25 participants
Blood and lymphatic system disorders: Any Grade [1]: 1 participants
Blood and lymphatic system disorders: Grade 3 [1]: 0 participants
Blood and lymphatic system disorders: Grade 4 [1]: 1 (2.1) participants
Blood and lymphatic system disorders: Grade 5 [1]: 0 participants
Brain stem stroke: Any Grade [1]: 1 participants
Brain stem stroke: Grade 3 [1]: 0 participants
Brain stem stroke: Grade 4 [1]: 0 participants
Cystitis noninfective: Any Grade [1]: 1 participants
Cystitis noninfective: Grade 3 [1]: 1 participants
Cystitis noninfective: Grade 4 [1]: 0 participants
Cystitis noninfective: Grade 5 [1]: 0 participants
Diarrhoea: Any Grade [1]: 1 participants
Diarrhoea: Grade 3 [1]: 1 participants
Diarrhoea: Grade 4 [1]: 0 participants
Diarrhoea: Grade 5 [1]: 0 participants
Dyspnoea: Any Grade [1]: 1 participants
Dyspnoea: Grade 3 [1]: 1 participants
Dyspnoea: Grade 4 [1]: 0 participants
Dyspnoea: Grade 5 [1]: 0 participants
Febrile neutropenia: Any Grade [1]: 1 participants
Febrile neutropenia: Grade 3 [1]: 0 participants
Febrile neutropenia: Grade 5 [1]: 0 participants
Gastrointestinal disorders: Any Grade [1]: 1 participants
Gastrointestinal disorders: Grade 3 [1]: 1 participants
Gastrointestinal disorders: Grade 4 [1]: 0 participants
Gastrointestinal disorders: Grade 5 [1]: 0 participants
Grade 2 lethargy (SAE) [1]: one
Haematuria: Any Grade [1]: 1 participants
Haematuria: Grade 3 [1]: 1 participants
Haematuria: Grade 4 [1]: 0 participants
Haematuria: Grade 5 [1]: 0 participants
Hypoxia: Any Grade [1]: 1 participants
Hypoxia: Grade 3 [1]: 1 participants
Hypoxia: Grade 4 [1]: 0 participants
Hypoxia: Grade 5 [1]: 0 participants
Infections and infestations: Any Grade [1]: 2 participants
Infections and infestations: Grade 3 [1]: 2 participants
Infections and infestations: Grade 4 [1]: 0 participants
Infections and infestations: Grade 5 [1]: 0 participants
Lethargy: Any Grade [1]: 1 participants
Lethargy: Grade 3 [1]: 0 participants
Lethargy: Grade 4 [1]: 0 participants
Lethargy: Grade 5 [1]: 0 participants
Nervous system disorders: Any Grade [1]: 4 participants
Nervous system disorders: Grade 3 [1]: 2 participants
Nervous system disorders: Grade 4 [1]: 0 participants
Nervous system disorders: Grade 5 [1]: 1 (2.1) participants
Participants with any serious TEAEs: Any Grade [1]: 11 participants
Participants with any serious TEAEs: Grade 3 [1]: 8 participants
Participants with any serious TEAEs: Grade 4 [1]: 1 (2.1) participants
Participants with any serious TEAEs: Grade 5 [1]: 1 (2.1) participants
Pneumonia: Any Grade [1]: 1 participants
Pneumonia: Grade 3 [1]: 1 participants
Pneumonia: Grade 4 [1]: 0 participants
Pneumonia: Grade 5 [1]: 0 participants
Renal and urinary disorders: Any Grade [1]: 3 participants
Renal and urinary disorders: Grade 3 [1]: 3 participants
Renal and urinary disorders: Grade 4 [1]: 0 participants
Renal and urinary disorders: Grade 5 [1]: 0 participants
Respiratory, thoracic and mediastinal disorders: Any Grade [1]: 2 participants
Respiratory, thoracic and mediastinal disorders: Grade 3 [1]: 2 participants
Respiratory, thoracic and mediastinal disorders: Grade 4 [1]: 0 participants
Respiratory, thoracic and mediastinal disorders: Grade 5 [1]: 0 participants
Soft tissue infection: Any Grade [1]: 1 participants
Soft tissue infection: Grade 3 [1]: 1 participants
Soft tissue infection: Grade 4 [1]: 0 participants
Soft tissue infection: Grade 5 [1]: 0 participants
Spinal cord compression: Any Grade [1]: 1 participants
Spinal cord compression: Grade 3 [1]: 1 participants
Spinal cord compression: Grade 4 [1]: 0 participants
Spinal cord compression: Grade 5 [1]: 0 participants
Tremor: Any Grade [1]: 1 participants
Tremor: Grade 3 [1]: 1 participants
Tremor: Grade 4 [1]: 0 participants
Tremor: Grade 5 [1]: 0 participants
Urinary tract obstruction: Any Grade [1]: 1 participants
Urinary tract obstruction: Grade 3 [1]: 1 participants
Urinary tract obstruction: Grade 4 [1]: 0 participants
Urinary tract obstruction: Grade 5 [1]: 0 participants
Alopecia: Any Grade [2]: 4 participants
Alopecia: Grade 3 [2]: 0 participants
Alopecia: Grade 4 [2]: 0 participants
Alopecia: Grade 5 [2]: 0 participants
Anaemia: Any Grade [2]: 6 participants
Anaemia: Grade 3 [2]: 0 participants
Anaemia: Grade 4 [2]: 0 participants
Anaemia: Grade 5 [2]: 0 participants
Aspartate aminotransferase increased: Any Grade [2]: 5 participants
Aspartate aminotransferase increased: Grade 3 [2]: 1 participants
Aspartate aminotransferase increased: Grade 4 [2]: 0 participants
Aspartate aminotransferase increased: Grade 5 [2]: 0 participants
Blood alkaline phosphatase increased: Any Grade [2]: 8 participants
Blood alkaline phosphatase increased: Grade 3 [2]: 0 participants
Blood alkaline phosphatase increased: Grade 4 [2]: 0 participants
Blood alkaline phosphatase increased: Grade 5 [2]: 0 participants
Blood and lymphatic system disorders: Any Grade [2]: 7 participants
Blood and lymphatic system disorders: Grade 3 [2]: 0 participants
Blood and lymphatic system disorders: Grade 4 [2]: 1 participants
Blood and lymphatic system disorders: Grade 5 [2]: 0 participants
Blood creatinine increased: Any Grade [2]: 7 participants
Blood creatinine increased: Grade 3 [2]: 0 participants
Blood creatinine increased: Grade 4 [2]: 0 participants
Blood creatinine increased: Grade 5 [2]: 0 participants
Constipation: Any Grade [2]: 4 participants
Constipation: Grade 3 [2]: 0 participants
Constipation: Grade 4 [2]: 0 participants
Constipation: Grade 5 [2]: 0 participants
Cough: Any Grade [2]: 4 participants
Cough: Grade 3 [2]: 0 participants
Cough: Grade 4 [2]: 0 participants
Cough: Grade 5 [2]: 0 participants
Decreased appetite: Any Grade [2]: 5 participants
Decreased appetite: Grade 3 [2]: 0 participants
Decreased appetite: Grade 4 [2]: 0 participants
Decreased appetite: Grade 5 [2]: 0 participants
Diarrhoea: Any Grade [2]: 7 participants
Diarrhoea: Grade 3 [2]: 2 participants
Diarrhoea: Grade 4 [2]: 0 participants
Diarrhoea: Grade 5 [2]: 0 participants
Dyspnoea: Any Grade [2]: 4 participants
Dyspnoea: Grade 3 [2]: 1 participants
Dyspnoea: Grade 4 [2]: 0 participants
Dyspnoea: Grade 5 [2]: 0 participants
Fatigue: Any Grade [2]: 12 participants
Fatigue: Grade 3 [2]: 1 participants
Fatigue: Grade 4 [2]: 0 participants
